ChEMBL document CHEMBL1201862, “PubChem BioAssay data set” (2004)
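Grown in 96-well plates, cells were treated for 48 hours with each compound at five concentrations. Insufficient inhibition: endpoint recorded as highest concentration tested. GI50 marks 50% less growth.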 Calls of active or inactive are those of the source. Cut-off read from the data, not from the text of the source: active = GI50 up to about 1.1 µM and inactive = higher.

How the values were obtained:
Assay in all cases: inhibition of tumour cell growth, NCI panel, 48 h
U-251 = system: U-251
Malme-3M = system: Malme-3M
COLO 205 = system: COLO 205
UACC-257 = system: UACC-257
M14 = system: M14
ACHN = system: ACHN
SK-OV-3 = system: SK-OV-3
HCT-15 = system: HCT-15
SF-539 = system: SF-539
HCT-116 = system: HCT-116
A498 = system: A498
HL-60 = system: HL-60
UACC-62 = system: UACC-62
SW-620 = system: SW-620
NCI-H23 = system: NCI-H23
MDA-MB-231 = system: MDA-MB-231
MDA-MB-435 = system: MDA-MB-435
PC-3 = system: PC-3
MDA-N = system: MDA-N

SMILES	GI50 (U-251)	GI50 (Malme-3M)	GI50 (COLO 205)	GI50 (UACC-257)	GI50 (M14)	GI50 (ACHN)	GI50 (SK-OV-3)	GI50 (HCT-15)	GI50 (SF-539)	GI50 (HCT-116)	GI50 (A498)	GI50 (HL-60)	GI50 (UACC-62)	GI50 (SW-620)	GI50 (NCI-H23)	GI50 (MDA-MB-231)	GI50 (MDA-MB-435)	GI50 (PC-3)	GI50 (MDA-N)
C=CCSc1ncnc2c1ncn2C1OC(CO)C(O)C1O (stereo not drawn)	> 100 µM (inactive)	> 100 µM (inactive)	41.2 µM (inactive)	> 100 µM (inactive)	33 µM (inactive)	20.1 µM (inactive)	30.5 µM (inactive)	7.94 µM	37.5 µM (inactive)	20.5 µM (inactive)	58.2 µM (inactive)	36 µM (inactive)	> 100 µM (inactive)	14.4 µM (inactive)	18.2 µM (inactive)				
COc1cc(/C=C2/SC(c3ccccc3)N(c3ccccc3)C2=O)cc(OC)c1OC (stereo not drawn)	59.6 µM (inactive)	80.2 µM (inactive)	36.9 µM (inactive)	61.8 µM (inactive)	49.9 µM (inactive)	84.3 µM (inactive)	35.8 µM (inactive)	61.7 µM	> 100 µM (inactive)	15.7 µM (inactive)	> 100 µM (inactive)	35.6 µM (inactive)	24.4 µM (inactive)	> 100 µM (inactive)	42.5 µM (inactive)	> 100 µM (inactive)	33.4 µM (inactive)		
C=Cc1ccccc1C1(O)C=CC(OC)(OC)C=C1	3.66 µM (inactive)	13.5 µM (inactive)	10.8 µM (inactive)	11.8 µM (inactive)	5.96 µM (inactive)	12.4 µM (inactive)	13.9 µM (inactive)	3.53 µM	2.72 µM (inactive)	3.4 µM (inactive)	23.2 µM (inactive)	3.4 µM (inactive)	4.51 µM (inactive)	3.8 µM (inactive)	4.46 µM (inactive)	10.5 µM (inactive)	4.36 µM (inactive)	10.1 µM (inactive)	
COc1ccc(-c2nc3ncccn3c2-c2ccc(SC)cc2)cc1	2.44 µM (inactive)		1.33 µM (inactive)	> 100 µM (inactive)	1.48 µM (inactive)	7.57 µM (inactive)	0.439 µM (active)	1.51 µM	1.83 µM (inactive)	1.1 µM (active)		1.73 µM (inactive)	0.916 µM (active)	1.48 µM (inactive)	3.3 µM (inactive)	4.24 µM (inactive)	0.213 µM (active)	3.13 µM (inactive)	0.237 µM (active)
COc1cc(/C=C/C(=O)c2sc(-n3nc(-c4ccccc4)cc3-c3ccccc3)nc2C)ccc1O	> 100 µM (inactive)	> 100 µM (inactive)	> 100 µM (inactive)	> 100 µM (inactive)		> 100 µM (inactive)	> 100 µM (inactive)	28.5 µM	> 100 µM (inactive)		> 100 µM (inactive)	49.9 µM (inactive)	> 100 µM (inactive)	> 100 µM (inactive)	> 100 µM (inactive)				
COc1cc(/C=C2\N=C(c3ccccc3)N(c3cc4cc(Sc5ccccc5)ccc4[nH]3)C2=O)ccc1O		1.43 µM (inactive)	2.35 µM (inactive)	14.8 µM (inactive)	3.65 µM (inactive)	7.46 µM (inactive)		2.86 µM	5.14 µM (inactive)	2.11 µM (inactive)	0.102 µM (active)	1.39 µM (inactive)	0.188 µM (active)	3.58 µM (inactive)	18.5 µM (inactive)		1.46 µM (inactive)		1.07 µM (active)
CN(C(=O)c1ccc(Cl)cc1)C(=S)N1CCN(c2ccccc2)CC1	> 100 µM (inactive)	> 100 µM (inactive)	50.9 µM (inactive)	71.4 µM (inactive)	> 100 µM (inactive)	> 100 µM (inactive)		87.5 µM				35.6 µM (inactive)	92.5 µM (inactive)	> 100 µM (inactive)	> 100 µM (inactive)	> 100 µM (inactive)	> 100 µM (inactive)		> 100 µM (inactive)
Cc1cc(=O)oc2c3c(ccc12)OC(c1ccc(Br)cc1)CC3=O (stereo not drawn)	5.9 µM (inactive)	6.43 µM (inactive)	12.7 µM (inactive)	13.1 µM (inactive)	10.4 µM (inactive)	11.7 µM (inactive)	8.15 µM (inactive)	7.48 µM	9.98 µM (inactive)	10.3 µM (inactive)			7.98 µM (inactive)	4.2 µM (inactive)	12.1 µM (inactive)	7.35 µM (inactive)	4.69 µM (inactive)	6.25 µM (inactive)	8.13 µM (inactive)
CC1=C(C)C(=O)c2c(cc3c4ccccc4ccn23)C1=O	> 100 µM (inactive)	> 100 µM (inactive)	> 100 µM (inactive)	> 100 µM (inactive)	> 100 µM (inactive)	> 100 µM (inactive)	> 100 µM (inactive)	> 100 µM	> 100 µM (inactive)	> 10 µM (inactive)			> 100 µM (inactive)	> 100 µM (inactive)	> 100 µM (inactive)				
C=C1C[C@@H](O)[C@@H](Br)C(C)(C)[C@@]12C=CC(O)(CBr)CC2 (stereo partly drawn)	63.4 µM (inactive)	> 100 µM (inactive)		> 100 µM (inactive)	> 100 µM (inactive)	> 100 µM (inactive)		> 100 µM		> 100 µM (inactive)		35.4 µM (inactive)	43.3 µM (inactive)	> 100 µM (inactive)	94 µM (inactive)	29 µM (inactive)	66.5 µM (inactive)	1.48 µM (inactive)	> 100 µM (inactive)
O=C1C=C2CC[C@H]3[C@@H]4CC[C@H](Oc5c6ccccc6nc6ccccc56)[C@H]4CC[C@@H]3[C@H]2CC1	41.9 µM (inactive)		42.5 µM (inactive)	35.6 µM (inactive)	61.9 µM (inactive)	48.4 µM (inactive)	60.8 µM (inactive)	24.7 µM	52.2 µM (inactive)	37.1 µM (inactive)		12.2 µM (inactive)	16.7 µM (inactive)	51.8 µM (inactive)	27.6 µM (inactive)	41.3 µM (inactive)	32.7 µM (inactive)	33.4 µM (inactive)	21.4 µM (inactive)
CCN(CC)C(=S)SC [METHYLDIETHYL CARBAMODITHIOATE]	> 100 µM (inactive)	> 100 µM (inactive)	> 100 µM (inactive)	> 100 µM (inactive)	> 100 µM (inactive)	> 100 µM (inactive)	> 100 µM (inactive)	> 100 µM	> 100 µM (inactive)	> 100 µM (inactive)	> 100 µM (inactive)	> 100 µM (inactive)	> 100 µM (inactive)	> 100 µM (inactive)	> 100 µM (inactive)	> 100 µM (inactive)		52.5 µM (inactive)	> 100 µM (inactive)
CC[C@@]1(O)C(=O)OCc2c1cc1n(c2=O)Cc2c-1nc1ccccc1c2/C=N\NC(=O)C(N)Cc1ccc(O)cc1 (stereo partly drawn)	0.248 µM (active)	1.35 µM (inactive)	12.6 µM (inactive)	2.45 µM (inactive)	0.587 µM (active)	0.133 µM (active)	0.869 µM (active)	4.32 µM	0.0731 µM (active)	0.804 µM (active)	0.813 µM (active)	0.146 µM (active)	0.209 µM (active)	1.52 µM (inactive)	0.233 µM (active)	15.8 µM (inactive)	1.61 µM (inactive)		3.35 µM (inactive)
O=C1C(/C=C/c2ccc(Cl)cc2)=NNC2N1N=C1NC(=O)C3(NN12)c1ccccc1-c1ccccc13 (stereo not drawn)	> 100 µM (inactive)	> 100 µM (inactive)	> 100 µM (inactive)	> 100 µM (inactive)	> 100 µM (inactive)	> 100 µM (inactive)	> 100 µM (inactive)	69.5 µM	> 100 µM (inactive)	> 100 µM (inactive)	> 100 µM (inactive)	> 100 µM (inactive)	> 100 µM (inactive)	> 100 µM (inactive)	> 100 µM (inactive)	> 100 µM (inactive)	60.8 µM (inactive)	> 100 µM (inactive)	
C=CCOC(=O)CC[C@H](NC(=O)[C@@H](CCC(F)(F)F)Cc1ccc(O)cc1)C(=O)OCC=C		20.2 µM (inactive)	21.3 µM (inactive)		21.3 µM (inactive)	47.9 µM (inactive)	> 100 µM (inactive)	> 100 µM	90.2 µM (inactive)	> 100 µM (inactive)		85.9 µM (inactive)	34 µM (inactive)	> 100 µM (inactive)	38.5 µM (inactive)		25.4 µM (inactive)		32.7 µM (inactive)
COCCN(C(=O)c1ccccc1)C1CCC2(SCCS2)c2[nH]c3ccccc3c21 (stereo not drawn)	46.9 µM (inactive)	36.2 µM (inactive)	37.7 µM (inactive)	59.2 µM (inactive)		37.5 µM (inactive)		28.8 µM	85.5 µM (inactive)	37.8 µM (inactive)	45.7 µM (inactive)	14.9 µM (inactive)		33.3 µM (inactive)	51.5 µM (inactive)	57.7 µM (inactive)	20.4 µM (inactive)	20 µM (inactive)	
COc1ccc(C2=C(OC(C)=O)c3cccn3-c3ccc(Cl)cc3S2)cc1		6.58 µM (inactive)	5.66 µM (inactive)	4.3 µM (inactive)	5.07 µM (inactive)		6.35 µM (inactive)	3.62 µM				1.59 µM (inactive)	4.48 µM (inactive)	4.06 µM (inactive)	4.52 µM (inactive)	3.72 µM (inactive)	2.22 µM (inactive)	4.69 µM (inactive)	2.13 µM (inactive)
